This passage reports IC50 results from US8895585B2, “Nicotinamide derivative or salt thereof” (FUJIFILM Corporation, priority 2010, dated 2014).

One experiment concerns THP-1 cells. Briefly: TNFα generation assay. It counts as cell-based, human. The conditions noted are these: Homo sapiens, THP-1, THP-1 cells; Table 22; read-out: IC50 in TNFα generation assay. An outline of the steps:
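THP-1 cells differentiated to macrophage-like cells with 10 ng/ml IFN-γ for 2 days, preincubated with compound 30 min at room temperature, then cultured 7 h on plates coated with human IgG (10 μg/ml). Secreted TNFα measured by ELISA or AlphaLISA.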

Experiment [1] deals with T1, glutathione S-transferase (GST)-fused full-length human Syk protein (Homo sapiens, UniProt P43405).
T1 construct: (GST)-fused full-length human Syk protein; GST (glutathione S-transferase); purchased Carna Biosciences
Briefly: Syk enzyme assay. The conditions noted are these: Syk enzyme assay, Test Example 1; read-out: IC50 of Syk-inhibitory activity. Type of experiment: biochemical. An outline of the steps: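 IC50 values come from a time-resolved FRET readout (615 and 665 nm) of substrate phosphorylation, measured after an EDTA stop and 1 h antibody binding. The kinase reaction ran 40 min at room temperature with 27 μM ATP and 0.4 μM biotin-peptide, following a 15 min compound preincubation with baculovirus-made GST-full-length human Syk.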

Consider `NC(=O)c1cc(F)c(N[C@@H]2CCCC[C@@H]2N)nc1Nc1cncc2c1ccn2CCN1CCCC1` [Example 004-007], for which the IC50 in the experiment on THP-1 cells was 65 to 130 nM; in experiment [1] it was < 10 nM.
The matching figures for `COc1ccc(-c2cncc(Nc3nc(N[C@@H]4CCCC[C@@H]4N)c(F)cc3C(N)=O)c2)cc1` (relative stereo) [Example 004-114, 6-(cis-2-aminocyclohexylamino)-5-fluoro-2-((5-(4-methoxyphenyl)pyridin-3-yl)amino)-nicotinamide]: 65 to 130 nM and < 10 nM.
On to `NC(=O)c1cc(F)c(N[C@@H]2CCCC[C@@H]2N)nc1Nc1cnc2[nH]ccc2c1` (relative stereo) [Example 004-061], for which the IC50 with THP-1 cells was < 65 nM; in experiment [1], < 10 nM.
The matching figures for `COCCn1ncc2cc(Nc3nc(N[C@H](CC(C)C)[C@H](C)N)c(F)cc3C(N)=O)ccc21` [Example 006-385, 6-(((2S,3R)-2-amino-5-methylhexan-3-yl)amino)-5-fluoro-2-((1-(2-methoxyethyl)-1H-indazol-5-yl)amino)nicotinamide]: 65 to 130 nM and < 10 nM.
The matching figures for `NC(=O)c1cc(F)c(N[C@@H]2CCCC[C@@H]2N)nc1Nc1cncc(C2CC2)c1` [Example 006-167, 6-(((1R,2S)-2-aminocyclohexyl)amino)-2-((5-cycylopropylpyridin-3-yl)amino)-5-fluoronicotinamide]: < 65 nM and < 10 nM.
The matching figures for `COCCn1ncc2cc(Nc3nc(N[C@H](CC4CC4)[C@H](C)N)c(F)cc3C(N)=O)ccc21` [Example 006-343, 6-(((2R,3S)-3-amino-1-cyclopropylbutan-2-yl)amino)-5-fluoro-2-((1-(2-methoxyethyl)-1H-indazol-5-yl)amino)nicotinamide]: 65 to 130 nM and < 10 nM.
For `NC(=O)c1cc(F)c(N[C@@H]2CCCC[C@@H]2N)nc1Nc1cnc(C2CC2)c(F)c1` [Example 006-553, 6-(((1R,2S)-2-aminocyclohexyl)amino)-2-((6-cyclopropyl-5-fluoropyridin-3-yl)amino)-5-fluoronicotinamide], the IC50 with THP-1 cells is 130 to 200 nM; in experiment [1], < 10 nM.
With `CC(C)C[C@H](CN)Nc1nc(Nc2ccc3c(cnn3CCF)c2)c(C(N)=O)cc1F` [Example 006-415, (R)-6-((1-amino-4-methylpentan-2-yl)amino)-5-fluoro-2-((1-(2-fluoroethyl)-1H-indazol-5-yl)amino)nicotinamide], the IC50 in the experiment on THP-1 cells is 65 to 130 nM; in experiment [1], < 10 nM.
The matching figures for `CCCC[C@H](CN)Nc1nc(Nc2cnc3cc(OC)ccc3c2)c(C(N)=O)cc1F` [Example 006-293, (R)-6-((1-aminohexan-2-yl)amino)-5-fluoro-2-((7-methoxyquinolin-3-yl)amino)nicotinamide]: 65 to 130 nM and < 10 nM.
The matching figures for `Cn1ncc2cc(Nc3nc(N[C@@H]4CCCC[C@@H]4N)c(F)cc3C(N)=O)ccc21` [Example 37-5, 6-((1R,2S)-2-aminocyclohexylamino)-5-fluoro-2-((1-methyl-1H-indazol-5-yl)amino)-nicotinamide]: 65 to 130 nM and < 10 nM.
Take `CCn1ncc2cc(Nc3nc(N[C@H](COC)[C@H](C)N)c(F)cc3C(N)=O)ccc21` [Example 006-469, 6-(((2S,3S)-3-amino-1-methoxybutan-2-yl)amino)-2-((1-ethyl-1H-indazol-5-yl)amino)-5-fluoronicotinamide]: the values for the IC50 (with THP-1 cells; in experiment [1]) were < 65 nM and < 10 nM, respectively.
The matching figures for `NC(=O)c1cc(F)c(NC2CCCCC2N)nc1Nc1ccc2cnn(CC(F)F)c2c1` (stereo not shown) [Example 002-188]: 65 to 130 nM and < 10 nM.
The matching figures for `CC(N)CNc1nc(Nc2ccc3ncccc3c2)c(C(N)=O)cc1F` (stereo not shown) [Example 014-009]: < 65 nM and < 10 nM.
The matching figures for `NC[C@H](Nc1nc(Nc2ccc3ncccc3c2)c(C(N)=O)cc1F)c1ccccc1` [Example 39-4, (R)-6-((2-amino-1-phenylethyl)amino)-5-fluoro-2-((quinolin-6-yl)amino)nicotinamide]: 65 to 130 nM and < 10 nM.
As to `CC(C)C[C@H](CN)Nc1nc(Nc2cncc(C3CC3)c2)c(C(N)=O)cc1F` [Example 006-144, (R)-6-((1-amino-4-methylpentan-2-yl)amino)-2-((5-cyclopropylpyridin-3-yl)amino)-5-fluoronicotinamide], the IC50 in the experiment with THP-1 cells is 65 to 130 nM; in experiment [1], < 10 nM.
The matching figures for `C[C@H](N)[C@@H](C)Nc1nc(Nc2ccc3ncccc3c2)c(C(N)=O)cc1F` [Example 006-275, 6-(((2R,3S)-3-aminobutan-2-yl)amino)-5-fluoro-2-((quinolin-6-yl)amino)nicotinamide]: < 65 nM and < 10 nM.
The matching figures for `C[C@H](N)[C@@H](C)Nc1nc(Nc2cncc(-n3cccn3)c2)c(C(N)=O)cc1F` (racemic) [Example 006-192, 2-((5-(1H-pyrazol-1-yl)pyridin-3-yl)amino)-6-(((2R,3S)-3-aminobutan-2-yl)amino)-5-fluoronicotinamide 2-((5-(1H-pyrazol-1-yl)pyridin-3-yl)amino)-6-(((2S,3R)-3-aminobutan-2-yl)amino)-5-fluoronicotinamide]: 65 to 130 nM and 10 to 50 nM.
Turning to `CCC[C@@H](Nc1nc(Nc2cncc(-c3cc(OC)ccc3F)c2)c(C(N)=O)cc1F)[C@H](C)N` [Example 006-288], the figures for the IC50 (with THP-1 cells; in experiment [1]) were 130 to 200 nM and < 10 nM, respectively.
Consider `CCOCCOCCOc1ccc2cc(Nc3nc(NC4CCCCC4N)c(F)cc3C(N)=O)ccc2n1` (stereo not shown) [Example 002-100], for which the IC50 in the experiment with THP-1 cells was 130 to 200 nM; in experiment [1], < 10 nM.
The matching figures for `CCc1nn(CC)c2ccc(Nc3nc(N[C@H](CC4CC4)[C@H](C)N)c(F)cc3C(N)=O)cc12` [Example 006-506, 6-(((2R,3S)-3-amino-1-cyclopropylbutan-2-yl)amino)-2-((1,3-diethyl-1H-indazol-5-yl)amino)-5-fluoronicotinamide]: 130 to 200 nM and < 10 nM.
On to `CC[C@H](N)[C@@H](CC(C)C)Nc1nc(Nc2ccc3ncccc3c2)c(C(N)=O)cc1F` [Example 006-201, 6-(((4R,5S)-5-amino-2-methylheptan-4-yl)amino)-5-fluoro-2-((quinolin-6-yl)amino)nicotinamide], for which the IC50 was 130 to 200 nM with THP-1 cells and < 10 nM in experiment [1].
Take `CCC[C@@H](Nc1nc(Nc2ccc3ncccc3c2)c(C(N)=O)cc1F)[C@H](C)N` [Example 006-207, 6-(((2S,3R)-2-aminohexan-3-yl)amino)-5-fluoro-2-((quinolin-6-yl)amino)nicotinamide]: the results for the IC50 (in the experiment on THP-1 cells; in experiment [1]) were < 65 nM and < 10 nM, respectively.
For the compound `C[C@H](N)[C@@H](CC1CC1)Nc1nc(Nc2cncc(C3CC3)c2)c(C(N)=O)cc1F` [Example 006-350, 6-(((2R,3S)-3-amino-1-cyclopropylbutan-2-yl)amino)-2-((5-cyclopropylpyridin-3-yl)amino)-5-fluoronicotinamide], the results for the IC50 (in the experiment on THP-1 cells; in experiment [1]) were 65 to 130 nM and < 10 nM, respectively.
The matching figures for `NC(=O)c1cc(F)c(N[C@@H]2CCCC[C@@H]2N)nc1Nc1cnc2c([N+](=O)[O-])cccc2c1` [Example 004-005]: 65 to 130 nM and < 10 nM.
The matching figures for `CC(C)C[C@@H](Nc1nc(Nc2ccc3c(c2)c(C2CC2)nn3C)c(C(N)=O)cc1F)[C@H](C)N` [Example 006-546, 6-(((2S,3R)-2-amino-5-methylhexan-3-yl)amino)-2-((3-cyclopropyl-1-methyl-1H-indazol-5-yl)amino)-5-fluoronicotinamide]: 130 to 200 nM and < 10 nM.
The matching figures for `Cc1ccncc1Nc1nc(N[C@@H]2CCCC[C@@H]2N)c(F)cc1C(N)=O` [Example 004-019]: 130 to 200 nM and 10 to 50 nM.
For `Cc1cncc(Nc2nc(N[C@@H]3CCCC[C@@H]3N)c(F)cc2C(N)=O)c1` [Example 006-103, 6-(((1R,2S)-2-aminocyclohexyl)amino)-5-fluoro-2-((5-methylpyridin-3-yl)amino)nicotinamide], the results for the IC50 (in the experiment on THP-1 cells; in experiment [1]) were < 65 nM and < 10 nM, respectively.
The matching figures for `C[C@H](N)[C@@H](CC1CC1)Nc1nc(Nc2ccc3cnn(C4CC4)c3c2)c(C(N)=O)cc1F` [Example 006-480, 6-(((2R,3S)-3-amino-1-cyclopropylbutan-2-yl)amino)-2-((1-cyclopropyl-1H-indazol-6-yl)amino)-5-fluoronicotinamide]: 130 to 200 nM and < 10 nM.
The matching figures for `COc1cccc(-c2cc(Nc3nc(NC4CCCCC4N)c(F)cc3C(N)=O)ccn2)c1F` (stereo not shown) [Example 002-139]: 65 to 130 nM and < 10 nM.
As to `NC[C@H](Nc1nc(Nc2cccc(-n3nccn3)c2)c(C(N)=O)cc1F)c1ccccc1` [Example 006-132, (R)-2-((3-(2H-1,2,3-triazol-2-yl)phenyl)amino)-6-((2-amino-1-phenylethyl)amino)-5-fluoronicotinamide], the IC50 in the experiment with THP-1 cells is 130 to 200 nM; in experiment [1] it was < 10 nM.
The matching figures for `COCCOCCOc1ccc2cc(Nc3nc(NC4CCCCC4N)c(F)cc3C(N)=O)ccc2n1` (stereo not shown) [Example 002-110]: 130 to 200 nM and < 10 nM.
Regarding `C[C@H](N)[C@@H](CC1CC1)Nc1nc(Nc2cncc(-n3cccn3)c2)c(C(N)=O)cc1F` [Example 006-392, 2-((5-(1H-pyrazol-1-yl)pyridin-3-yl)amino)-6-(((2R,3S)-3-amino-1-cyclopropylbutan-2-yl)amino)-5-fluoronicotinamide], the IC50 in the experiment on THP-1 cells was 65 to 130 nM; in experiment [1], < 10 nM.
